Assay results: PubChem BioAssay (NCI)
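Test compounds were applied to cells in 96-well plates for 48 hours at 5 doses. TGI denotes the concentration required for complete inhibition of growth.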

What was measured:
Assay in all cases: NCI anticancer screen, dose series, 48 h
KM12 colon = tested on: KM12 colon
OVCAR-3 ovarian = tested on: OVCAR-3 ovarian
SN12C renal = tested on: SN12C renal
NCI-H460 lung = tested on: NCI-H460 lung
HOP-92 NSCLC = tested on: HOP-92 NSCLC
U251 CNS = tested on: U251 CNS
UACC-257 melanoma = tested on: UACC-257 melanoma
A549 NSCLC = tested on: A549 NSCLC
HT29 colon = tested on: HT29 colon
MDA-N = tested on: MDA-N

Structure (SMILES) | TGI (KM12 colon) [µM] | TGI (OVCAR-3 ovarian) [µM] | TGI (SN12C renal) [µM] | TGI (NCI-H460 lung) [µM] | TGI (HOP-92 NSCLC) [µM] | TGI (U251 CNS) [µM] | TGI (UACC-257 melanoma) [µM] | TGI (A549 NSCLC) [µM] | TGI (HT29 colon) [µM] | TGI (MDA-N) [µM]
COc1ccc2c(c1)CCN1CCc3ccccc3CC21 (stereo not given) | > 100 | > 100 | > 100 | > 100 | 68.3 | > 100 | > 100 | > 100 | > 100 | > 100
CN(C)c1ccc(C2SCC(=O)N2c2ccc(Oc3ccc(Cl)cc3)c(Cl)c2)cc1 (stereo not given) | 40.9 | 79.9 | 50 | 49.4 | 45.8 | 53.9 | > 100 | 60.3 | 39.8 | 58.5
CC1=NNC(=O)C1C(CC(=O)c1c[nH]c2ccccc12)C(=O)O (stereo not given) | > 100 | > 100 | > 100 | > 100 | > 100 | > 100 | > 100 | > 100 | > 100 | > 100
C=CC[C@]12C=C(OC)[C@@H](O)[C@](OC)(C(c3cc(OC)c4c(c3)OCO4)[C@H]1C)[C@H]2OC(C)=O (stereo not given in full) | > 100 | > 100 | > 100 | > 100 | > 100 | > 100 | > 100 | > 100 | > 100 | > 100
Cn1c2ccccc2c(=NNc2cccc(C(=O)O)c2)c2ccccc21 | 47.5 | 11.9 | 30.3 | 22 | 51.2 | 28.7 | 58.6 | 27.3 | 14.7 | 31.3
CC(C)NC(=O)OCCN=c1c2ccccc2ccc2ccccc12 | > 100 | 95.6 | > 100 | > 100 | 88 | > 100 | > 100 | > 100 | > 100 | > 100
CC(C)(Cl)C(Br)CCC(=CCCl)CBr (mixture of isomers) | 4.04 | 3.9 | 7.06 | 5.71 | 4.03 | 5.59 | 6.81 | 32.8 | 3.55 | 3.28
NNC(=O)CSc1nc2ccccc2c(=O)n1N | > 100 | > 100 | > 100 | > 100 | 57.7 | 89.3 | > 100 | > 100 | > 100 | > 100
CN1COCc2c1ccc1cc3ccc4c(c3nc21)COCN4S(C)(=O)=O | > 100 | > 100 | > 100 | > 100 | > 100 | > 100 | > 100 | > 100 | > 100 | > 100
O=C(O)c1ccc(OCc2nc3cc(C(F)(F)F)ccc3nc2-c2ccccc2)cc1 | > 100 | > 100 | > 100 | > 100 | > 100 | > 100 | > 100 | > 100 | > 100 | > 100
Nc1ccc(S2(c3ccc(N)cc3)C=C(c3ccccc3)C(c3ccccc3)=C2)cc1 | > 100 | > 100 | > 100 | > 100 | > 100 | > 100 | > 100 | > 100 | > 100 | > 100
Cn1c(COC(=O)Nc2ccccc2)c(COC(=O)Nc2ccccc2)c2ccc3cc(Cl)c(Cl)cc3c21 | 23.4 | 21.6 | 16.4 | 22.9 | 7.54 | 5.01 | 21.6 | > 75 | 23.6 | 18.3
C=C1CN2CC(=C)CN(C1)CS(=O)(=O)N1CC(=C)CN(CC(=C)C1)S(=O)(=O)N1CC(=C)CN(CC(=C)C1)S(=O)(=O)C2 | > 100 | > 100 | > 100 | > 100 | > 100 | > 100 | 94.4 | > 100 | > 100 | > 100
COc1ccc(C2OC(c3ccncc3)=NN2C)cc1OC (stereo not given) | > 100 | > 100 | > 100 | > 100 | > 100 | > 100 | > 100 | > 100 | > 100 | > 100
CCC/C(Cl)=N\OC(=O)Nc1ccc(OC(F)(F)F)cc1 | 30.8 | 25.2 | 21.1 | 40.1 | 4.48 | > 58.1 | 39.8 | 42.3 | 42.4 | 28.2
C=C1C(=O)C=C[C@]2(C)CC[C@H]3C(=C)C(=O)O[C@@H]3[C@@H]12 | 3.53 | 11.1 | 7.49 | 33.1 | 7.62 | 5.75 | 10.5 | 29.8 | 3.24 | 16.6
C#C[C@]1(O)CC[C@H]2[C@@H]3CCC4=C/C(=N/OC(=O)c5cccc6c(=O)c7ccccc7[nH]c56)CC[C@@H]4[C@H]3CC[C@@]21C | > 100 | > 100 | > 100 | > 100 | > 100 | > 100 | > 100 | > 100 | > 100 | > 100
